Consider one substance from patent US20030211075A1 (priority 2001, published 2003).

The test system of data set [1] is HT29 human colorectal carcinoma. Briefly: HT29 xenograft, tumor growth and necrosis after tTF constructs and Factor VIIa. The data set is classed as in vivo, mouse.
Data set [2] relates to L540 human Hodgkin's tumors. Briefly: Anti-VCAM-1•tTF coaguligand in L540 tumor-bearing mice. The format is in vivo, mouse. On the procedure:
Before coaguligand injection, tumors were viable, having a uniform morphology lacking regions of necrosis. […] Within four hours of coaguligand injection, 40-70% of blood vessels were thrombosed, despite the initial staining of only 20-30% of tumor blood vessels. The thrombosed vessels contained occlusive platelet aggregates, packed erythrocytes and fibrin. In several regions, the blood vessels had ruptured, spilling erythrocytes into the tumor interstitium.
The drug was administered i.v. 3 times at intervals of 4 days.

A further data set has as its system A20 lymphoma cells. The experiment in a line: In vitro coagulation assay on A20 cells. The format is cell-based, mouse.
The subject of a further data set is TNFα. The experiment in a line: TNFα serum levels in treated animals. The format is in vivo, mouse. To be noted: tTF containing no endotoxin (n=6), 1, 2 and 24 hours. On the procedure:
(§1) Mice were closely observed after treatment for clinical signs of toxicity and clinical status was documented at defined time points (5 minutes, 10 minutes, 15 minutes, 30 minutes. 1 hour. 2 hours, 24 hours, 48 hours, 72 hours). Blood samples were taken from the tail vein at 1 hour, 2 hours and 24 hours to measure TNFα blood levels. Three days after treatment, the mice were anesthetized, blood samples were taken from the vena cava for coagulation tests, and an autopsy was performed to document any changes in gross pathology. Tumors, lymph node metastases and the major normal organs (heart, lung, brain, liver, kidney, colon, spleen, pancreas) were harvested and prepared for histological analysis.
TNFα levels in serum were determined using the Quantikine-M kit (R&D Systems, Minneapolis, Minn.) according to the manufacturer's instructions.

Data set [3] relates to H460 human non-small cell lung carcinoma. The experiment in a line: Anti-tumor effects, H460. The data set is classed as in vivo, mouse. To be noted: second treatment at 900 mm^3. On the procedure:
The tumor test systems were: i) L540 human Hodgkin's disease tumors growing in SCID mice; ii) C1300 Muγ (interferon-secreting) neuroblastoma growing in nu/nu mice; iii) H460 human non-small cell lung carcinoma growing in nu/nu mice. To establish solid tumors, 1.5×10^7 tumor cells were injected subcutaneously into the right anterior flank of SCID or BALB/c nu/nu mice (Charles River Labs., Wilmingham, Mass.). When the tumors had grown to various diameters, mice were assigned to different experimental groups, each containing 4 to 9 mice.
Other mice received equivalent quantities of bispecific antibody alone. The injections were performed over ˜45 seconds into one of the tail veins, followed by 200 μl of saline. The infusions were repeated six days later. Perpendicular tumor diameters were measured at regular intervals and tumor volumes were calculated.

A further data set concerns the target T1, immobilized tTF (Homo sapiens, UniProt P13726).
T1 construct: amino acid 1-219 of the mature protein; made in house; host or cells: E. coli
The experiment in a line: Real time binding of tTF to immobilized tTF (surface plasmon resonance). To be noted: tTF 30 μg/ml alone or preincubated with endotoxin or factor VIIa. On the technique in general: In SPR one partner is held on a chip, and binding of the other changes the refractive index at the surface.

Data set [4] concerns C1300 Muγ mouse neuroblastoma. Briefly: C1300 (Muγ) tumor model, coaguligand and tTF: thrombosis and anti-tumor effects. The format is in vivo.
Data set [5] concerns thrombin-antithrombin-complexes (TAT), antithrombin III (ATIII). The experiment in a line: Coagulation parameters in plasma three days after treatment. The format is in vivo, mouse. To be noted: tTF alone; plasma three days after i.v. treatment.
In a further data set the test system is 3LL mouse lung carcinoma. The experiment in a line: In vivo tumor thrombosis, 3LL. To be noted: large (>800 mm^3) tumors. The text has this: (§2) Tumor test systems were of four types: i) 3LL mouse lung carcinoma growing subcutaneously in C57BL/6 mice; ii) C1300 mouse neuroblastoma growing subcutaneously in BALB/c nu/nu mice; iii) HT29 human colorectal carcinoma growing subcutaneously in BALB/c nu/nu mice; and iv) C1300 Muγ mouse neuroblastoma growing subcutaneously in BALB/c nu/nu mice. The C1300 Muγ tumor is an interferon-y secreting transfectant derived from the C 1300 tumor (Watanabe et al., 1989).
(§3) To establish tumors, 10^6 to 1.5×10^7 tumor cells were injected subcutaneously into the right anterior flank of the mice. When tumors had grown to various sizes, mice were randomly assigned to different study groups. […] Fab′, or bispecific antibody. Other mice received equivalent quantities IgG, Fab′ or bispecific antibody alone. The injections were performed slowly into one of the tail veins over approximately 45 seconds, usually followed by 200 μl of saline.
(§4) Twenty-four hours after being injected with tTF or immunoglobulin-tTF conjugates, the mice were anesthetized with metophane and were exsanguinated by perfusion with heparinized saline. Tumors and normal tissues were excised and immediately fixed in 3% (v/v) formalin. Paraffin sections were cut and stained with hematoxylin and eosin. Blood vessels having open lumens containing erythrocytes and blood vessels containing thrombi were counted. […]

Data set [6] can be described thus: Clinical signs of toxicity and histology of normal organs in treated tumor-bearing mice. The format is in vivo, mouse. To be noted: for Symptoms: tTF alone (4 μg i.v.), no endotoxin. On the procedure: as §1
Tissue samples harvested at the time of autopsy were fixed in 3% NBF (normal buffered formalin) and embedded in paraffin wax. Tissue blocs were cut, dewaxed and stained with hematoxilin and eosin (H&E). Tissue sections were analyzed on a light microscope by two independent investigators and histological findings were documented. Tumor sections with necrotic areas were scanned with a GS-700 imaging densitometer (Biorad, Hercules, Calif.) and areas of necrosis were calculated as % of total section area. Statistical Analysis was performed using SPSS software (SPSS Science Software, Erkrath, Germany) applying the Mann-Whitney-U-test for ungrouped data.

For data set [7], the system named is C1300 mouse neuroblastoma. The experiment in a line: In vivo tumor thrombosis, C1300.
Description: as §2, §3, §4

Data set [8] relates to 2F2B mouse endothelial cells. Briefly: Binding of tTF to endothelial cells (FACS, cell bound coagulation assay). The format is cell-based. On the procedure:
Cells were washed and coagulation factor mix (as described above) was added. S2765 substrate was added and Factor Xa generation was measured as described above.
2F2B cells were stimulated with LPS (20 μg/ml) or TNFα (500 U/ml) for 4 h at 37° C. […] Fluorescent cells were detected on a flow cytometer (Becton Dickinson, San Jose, Calif.).

T1 sequence (P13726 33-251): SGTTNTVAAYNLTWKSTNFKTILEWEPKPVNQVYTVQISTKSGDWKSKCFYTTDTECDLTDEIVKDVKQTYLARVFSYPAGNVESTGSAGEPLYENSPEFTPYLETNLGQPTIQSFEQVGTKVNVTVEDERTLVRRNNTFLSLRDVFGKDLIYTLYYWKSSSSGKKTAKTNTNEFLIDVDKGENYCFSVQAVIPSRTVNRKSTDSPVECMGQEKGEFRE

In the case of “tTF: extracellular domain of the mature Tissue Factor protein (amino acid 1-219), recombinant truncated human Tissue Factor”, the “duration of discontinued growth after treatment” value in data set [1] (large (1200 mm^3) tumors) is given as “about 7 days”. In addition, in data set [1] (mouse, in vivo, iv), the “average area of necrosis in tumor sections” value is given as “some necrosis”. Also, the “control reagents that caused thrombosis” value in data set [2] (equivalent quantities) is reported as “None”. Also, the “effect on tumor growth” value in data set [2] (i.v. 3 times at intervals of 4 days) was “did not affect tumor growth”. In the data set with A20 lymphoma cells (0.1 nM Factor VIIa), the “increase in coagulation-inducing potency” value is reported as 2-5 fold. Also, the plasma coagulation time with A20 lymphoma cells (10^−10 M tTF219, 13.5 nM Factor VIIa) came out at 20 s; with A20 lymphoma cells (10^−10 M tTF219, absence of Factor VIIa) it was 60 s. The “concentration at which plasma coagulated in 50 seconds” value in the data set on A20 lymphoma cells (localized on A20 cells via bispecific antibody B21-2/10H10) worked out at 3 nM. For the same substance, the “time to visible fibrin strands” value with A20 lymphoma cells (tTF bound to A20 cells by B21-2/10H10, mouse plasma, untreated cells 164 seconds) turned out to be 36 s. Besides, the TNFα serum level entry in the data set with TNFα is given as “could not be detected”. For the same substance, in [3], the “tumor volume after second treatment” value was found to be 550 mm^3. Moreover, the “binding to immobilized tTF” value with immobilized tTF is “did not bind to or homodimerize with immobilized tTF”. The “thrombosis of tumor vessels” value was “practically all vessels in all regions of the tumor were thrombosed” in data set [4] (24 hours after injection of tTF219) and “virtually all vessels were thrombosed” in [7] (large tumors (>1000 mm^3), 24 hours after injection). The “thrombi or morphological abnormalities in normal organs” value in [4] (paraffin sections 30 minutes to 24 hours after administration) is “neither thrombi, nor histological or morphological abnormalities were visible”. For the same substance, the “effect on tumor vessels” value in data set [4] (small (<500 mm^3) tumors) and in data set [7] (small (<500 mm^3) tumors) was “largely unaffected” in each case. Further, in data set [4] (tTF alone or mixed with control bispecific antibodies), the “tumor growth versus antibodies or saline alone” value is “grew significantly more slowly”. Moreover, the “TAT” value in [5] turned out to be 25.4 ng/mL. The “tumor vessels thrombosed, average” value in the data set with 3LL mouse lung carcinoma is on record as 62%. Besides, the “histology of normal organs” value in [6] (light microscopy, three days after treatment) is listed as “No histological abnormalities were seen”. For the same substance, the Symptoms entry is “None” in [6] (listed as TTF) and “no clinical signs of toxicity” in data set [6] (listed as endotoxin-free tTF). For the same substance, the “binding to endothelial cells expressing tissue factor” value in data set [8] is “no binding”.
